≈ marks a conversion by molar mass, not a printed value.
How the values were obtained:
Vero = assay: Cytotoxicity against African green monkey Vero cells by green fluorescent protein-based assay; assay type: cell-based; conditions: Chlorocebus sabaeus
Plasmodium falciparum = assay: Antimalarial activity against Plasmodium falcipuram K1 by microculture radioistope technique; assay type: functional, organism-based
[1] = tested on: Mycobacterium tuberculosis; assay: Antitubercular activity against Mycobacterium tuberculosis H37Ra by green fluorescent protein microplate assay; assay type: functional

| Structure (SMILES) | IC50 (Vero) | IC50 (Plasmodium falciparum) | MIC [1] |
| --- | --- | --- | --- |
| CC(=O)O[C@@H](C/C=C(/C)C(=O)O)[C@@H](C)[C@H]1CC[C@@]2(C)C3=CC[C@@H](C(C)(C)OC(C)=O)[C@]4(CCC(=O)OC4)C3=CC[C@]12C | > 50 mg/L | 5.8 mg/L (≈ 9.92 µM) | > 50 mg/L |
| CC(=O)O[C@@H](C/C=C(/C)C(=O)O)[C@@H](C)[C@H]1CC[C@@]2(C)C3=C(C=C4C=CC(=O)OC(C)(C)[C@@H]4CC3)CC[C@]12C | 49.2 mg/L (≈ 93.8 µM) | 0.03 mg/L (≈ 0.0572 µM) | > 50 mg/L |
| CC(=O)OC[C@@]1(CCC(=O)O)C2=C(CC[C@H]1C(C)(C)O)[C@]1(C)CC[C@H]([C@H](C)[C@H](C/C=C(/C)C(=O)O)OC(C)=O)[C@@]1(C)CC2 | > 50 mg/L | > 10 mg/L | > 50 mg/L |
| CC(=O)OC[C@@]1(CCC(=O)O)C2=C(CC[C@H]1C(C)(C)O)[C@]1(C)CC[C@H]([C@H](C)[C@H]3OC(=O)C(C)=C[C@@H]3O)[C@@]1(C)CC2 | > 50 mg/L | 5 mg/L (≈ 8.92 µM) | > 50 mg/L |
| Cc1c2ccncc2c(C)c2c1[nH]c1ccccc12 [ELLIPTECINE] | 0.87 mg/L (≈ 3.53 µM) | – | – |
| Cl.O[C@@H](c1cc(C(F)(F)F)nc2c(C(F)(F)F)cccc12)[C@H]1CCCCN1 | – | > 10 mg/L | – |
| CC(=O)OC[C@]12CC[C@H](O)C(C)(C)[C@@H]1CCC1=C2CC[C@]2(C)[C@@H]([C@H](C)[C@H](C/C=C(/C)C(=O)O)OC(C)=O)CC[C@@]12C | > 50 mg/L | > 10 mg/L | > 50 mg/L |
| CC(=O)OC[C@]12CCC(=O)OC(C)(C)[C@@H]1CC=C1C2=CC[C@]2(C)[C@@H]([C@H](C)[C@H](C/C=C(/C)C(=O)O)OC(C)=O)CC[C@@]12C | > 50 mg/L | > 10 mg/L | > 50 mg/L |
| NNC(=O)c1ccncc1 [ISONIAZID] | – | – | 0.047 mg/L (≈ 0.343 µM) |
| CC(=O)OC[C@]12CCC(=O)OC(C)(C)[C@@H]1CCC1=C2CC[C@]2(C)[C@@H]([C@H](C)[C@H](C/C=C(/C)C(=O)O)OC(C)=O)CC[C@@]12C | > 50 mg/L | > 10 mg/L | > 50 mg/L |
| CC1=CC[C@@H]([C@@H](C)[C@H]2CC[C@@]3(C)C4=C(CC[C@]23C)[C@]23CC[C@H](OC2=O)C(C)(C)[C@@H]3CC4)OC1=O | > 50 mg/L | > 10 mg/L | > 50 mg/L |
| CC(=O)OC[C@@]1(CCC(=O)O)C2=CC[C@]3(C)[C@@H]([C@H](C)[C@H](C/C=C(/C)C(=O)O)OC(C)=O)CC[C@@]3(C)C2=CC[C@H]1C(C)(C)O | > 50 mg/L | 1.4 mg/L (≈ 2.32 µM) | > 50 mg/L |
| CC(=O)O[C@@H]1C[C@H]([C@H](C)[C@@H]2CC=C(C)C(=O)O2)[C@@]2(C)CCC3=C(CC[C@H]4C(C)(C)OC(=O)C=C[C@]45C[C@H]35)[C@]12C | 8.5 mg/L (≈ 15.8 µM) | 0.001 mg/L (≈ 0.00186 µM) | 25 mg/L (≈ 46.6 µM) |
| CC1=CC[C@@H]([C@@H](C)[C@H]2CC[C@@]3(C)C4=C(CC[C@]23C)[C@@]2(C)CCC(=O)C(C)(C)[C@@H]2CC4)OC1=O | > 50 mg/L | 3.6 mg/L (≈ 7.95 µM) | > 50 mg/L |
| CC(=O)OC[C@@]1(CCC(=O)O)C2=C(CC[C@H]1C(C)(C)O)[C@]1(C)CC[C@H]([C@H](C)[C@@H]3CC=C(C)C(=O)O3)[C@@]1(C)CC2 | > 50 mg/L | 8.2 mg/L (≈ 15.1 µM) | 25 mg/L (≈ 45.9 µM) |
| C[C@H]1[C@@H](O)O[C@@H]2O[C@@]3(C)CC[C@H]4[C@H](C)CC[C@@H]1[C@@]24OO3 [ARTENIMOL] | – | > 10 mg/L | – |

From ChEMBL document CHEMBL4665696, “Highly Modified Lanostane Triterpenes from the Wood-Rot Basidiomycete Ganoderma colossus: Comparative Chemical Investigations of Natural and Artificially Cultivated Fruiting Bodies and Mycelial Cultures” (J Nat Prod, 2020)
